From US5688824A, “Use of leflunomide to prevent or control xenograft rejection” (priority 1996, dated 1997)
Where two headings read alike, the source gives them in different places.

How the values were obtained:
[1] = test system: chronic rejection of rat cardiac allografts; experiment: chronic rejection of rat cardiac allografts (LEW to F-344), histologic scoring of arterial intimal thickening; assay type: in vivo
Protocol: These rats share major histocompatibility antigens but differ at minor histocompatibility loci. A short course of immunosuppression results in a slow chronic rejection that gradually destroys the graft, with the appearance of reproducible histology similar to the chronic rejection seen in humans.
Donor and recipient animals were anesthetized with Ketamine/Xylazine (Fort Dodge, Iowa) 100/5 mg/kg. […] Cardiac allograft survival was determined by daily abdominal palpation, and rejection was considered complete upon cessation of heart beat.
The three control groups were given no treatment and were sacrificed at designated 30-day intervals to observe the development of chronic rejection. The treatment groups were administered daily doses of leflunomide or leflunomide and CsA according to Table 1 below, beginning at day 30 and continuing to day 60 or day 90. CsA in oral form (Sandimmune, Sandoz Corporation, East Hanover, N.J.) was administered at 2, 5 or 10 mg/kg to rats by gavage.
Upon sacrifice, the heart allograft was removed, serially sectioned into approximately 2-mm slices, and fixed in 10% buffered formalin overnight. The sections were embedded in paraffin and stained with hematoxylin and eosin, Verhoeff's elastin stain and Masson's trichrome stain to evaluate pathologic changes and to score graft arterial intimal thickening. The remaining sections were immunostained using standard indirect avidin-biotin techniques (Vectastain ABC-Elite, Vector Laboratories, Burlingame, Calif.) with monoclonal antibodies against smooth muscle actin (DAKO, Carpin Terra, Calif.) to evaluate intimal smooth muscle proliferation, and with polyclonal antibodies against phosphotyrosine to evaluate tyrosine kinase activity by counting phosphotyrosine positive cells. […] Allospecific antibody titres among the groups were compared using the unpaired Student's t-test.
The sections were examined by light microscopy, and 20 to 70 arteries in each allograft were blindly scored for severity of arterial intimal thickening according to the general standard of Adams et al., supra, using the following histological scores: a score of 0 was a normal artery; a score of 1, intimal thickening up to approximately 50% of the perimeter of the vessel, with less than 20% luminal compromise; a score of 2, intimal thickening involving between 50% and 100% of the perimeter of the vessel, with less than 20% luminal compromise; score of 3, circumferential intimal thickening, with more than 20% but less than 50% luminal compromise; score of 4, circumferential intimal thickening, with more than 50% but less than 80% luminal compromise; score of 5, circumferential intimal thickening, with more than 80% luminal compromise. […] Statistical comparisons of histological scores were performed using the Mann-Whitney U--Wilcoxon Rank Sum W Test.

[2] = test system: rejection of concordant hamster to rat cardiac xenografts; experiment: hamster to rat concordant cardiac xenograft rejection; assay type: in vivo, Golden Syrian hamster donor, Lewis (LEW) rat recipient
Text: The fundamental design of this experiment was to determine a dose response curve using leflunomide as monotherapy, CsA as monotherapy, and both used as combination therapy. End points used to assess efficacy were duration of time to rejection, mortality, histologic differences among the treatment groups, and donor specific antibody responses.
Male LEW rats weighing approximately 200 grams and male Golden Syrian hamsters weighing approximately 150 grams (Harlan, Sprague, Dawley, Indianapolis, Ind.) were allowed five to ten days of acclimatization before surgery was performed. Ketamine-xylazine anesthesia was used in all animals and food and water were freely allowed post-operatively.
Heart transplantation was performed according to the technique of Ono et al., Cardiovasc. […] Cardiac xenograft survival was determined by daily palpation, and rejection was considered complete when the impulse was undetectable. CsA, in its intravenous form (Sandimmune, Sandoz Corporation, East Hanover, N.J.) was administered daily by intramuscular injection to the rat hind limbs. Leflunomide (HWA-486, Hoechst AG, Germany) suspended in 1% carboxymethylcellulose was administered by gavage daily. Immunosuppression therapy was started on the day of surgery unless otherwise specified.
The transplanted animals were assigned to one control group and twelve treatment groups, with dosing at 2.5, 5, 10, 15 and 20 mg/kg of leflunomide, and 10 and 20 mg/kg of CsA. In two groups CsA was kept at 10 mg/kg while leflunomide was dosed at 5 or 10 mg/kg. Three additional treatment groups were included in which leflunomide monotherapy was started seven days before transplantation, or two or three days after transplantation.
The graft heart was excised after cessation of heart beat. Part of the heart was snap frozen in liquid nitrogen and stored at -70° C.; the remainder was fixed in formalin and stained with hematoxylin and eosin to determine pathological changes. The frozen tissue was stained for IgM and IgG deposition using ABC Technique according to Hsu et al., J. Histochem. Cytochem., 29:577 (1981).

cGvH disease or SLE = settings: mouse, U.S. Pat. No. 4,965,276; cited from earlier work
[3] = test system: tubulointerstitial nephritis; settings: BN rats, cited from earlier work
[4] = test system: epidermal growth factor (EGF)-dependent cell growth; settings: cited from earlier work
skin grafts = settings: cited from earlier work
[5] = test system: heterotopic small intestinal transplantation; settings: continuous infusion pump, cited from earlier work
[6] = test system: xenophile antibodies to human peripheral blood lymphocytes (PBL); settings: cited from earlier work
[7] = to open-ring form A771726; cited from earlier work
[8] = Lef 15 mg/kg, day began 0, group 5, listed as Lef

Cc1oncc1C(=O)Nc1ccc(C(F)(F)F)cc1 [leflunomide, N-(4-trifluoromethylphenyl)-5-methylisoxazol-4-carboxamide]
effect on chronic rejection process ([1]; 5 mg/kg (each) from day 30, 10 mg/kg (each) day 60 to 90): able to halt the progression of chronic rejection and partially reverse the process of arterial thickening | mononuclear cell infiltration, myocardial fibrosis, smooth muscle proliferation ([1]; 5 mg/kg (each) from day 30, 10 mg/kg (each) day 60 to 90, day 90): Interstitial mononuclear cell infiltration and myocardial fibrosis were mild | arterial intimal thickening, change vs control ([1]; 5 mg/kg (each) from day 30, day 60): did not significantly improve by day 60 | Histological Scores (mean vascular histologic score) ([1]; Lef 5 mg/kg day 30 to 60, then 10 mg/kg day 60 to 90, group 8): 1.38±0.92 | Histological Scores (mean vascular histologic score) ([1]; Lef 5 mg/kg day 30 to 60, then 10 mg/kg day 60 to 90, group 8, listed as Lef): 1.4 ± 0.9 | Histological Scores (mean vascular histologic score) ([1]; Lef 5 mg/kg from day 30 to day 60, group 5, sacrificed day 60): 1.55±0.53 | Histological Scores (mean vascular histologic score) ([1]; Lef 5 mg/kg from day 30 to day 60, group 5, sacrificed day 60, listed as Lef): 1.6 ± 0.5 | graft histology ([2]; 2.5 mg/kg leflunomide, rejected grafts): Interstitial hemorrhage, focal vascular thrombosis and myocardial necrosis with sparse polymorphonuclear cellular infiltration | graft histology ([2]; 5.0 mg/kg leflunomide, rejected grafts): Interstitial hemorrhage, focal vascular thrombosis and myocardial necrosis with sparse polymorphonuclear cellular infiltration | graft histology ([2]; 15 mg/kg leflunomide monotherapy, long-term grafts): myocardial fibrosis, moderate mononuclear cell infiltration and arterial thickening, consistent with chronic rejection | Mean Survival ± SD ([2]; Lef 2.5 mg/kg, day began 0, group 2): 5.0 ± 0.6 days | Mean Survival ± SD ([2]; Lef 5 mg/kg, day began 0, group 3): 7.7 ± 2.5 days | Graft Survival for Each Subject ([2]; Lef 5 mg/kg, day began 0, group 3, listed as Lef): 8,14 days | Mean Survival ± SD ([2]; Lef 10 mg/kg, day began 0, group 4): 52.0 ± 20.2 days | Mean Survival ± SD ([2]; Lef 10 mg/kg, day began +2, group 12): 58.0 ± 13.7 days | Graft Survival for Each Subject ([2]; Lef 10 mg/kg, day began +2, group 12, listed as Lef): 76,77 days | Mean Survival ± SD ([2]; Lef 10 mg/kg, day began +3, group 13): 3.7 ± 0.5 days | Mean Survival ± SD ([2]; Lef 10 mg/kg, day began -7, group 11): 64.0 ± 13.3 days | Mean Survival ± SD ([2]; Lef 15 mg/kg, day began 0, group 5): 76.5 ± 21 days | Graft Survival for Each Subject [2, 8]: 100,105 days | Mean Survival ± SD [2, 8]: 76.5 ± 21.1 days | Mean Survival ± SD ([2]; Lef 20 mg/kg, day began 0, group 6): 58.9 ± 28.1 days | Graft Survival for Each Subject ([2]; Lef 20 mg/kg, day began 0, group 6, listed as Lef): 100 days | time to rejection of the graft ([2]; initiation of leflunomide delayed until day 3, all animals): ≤ 24 h | toxicity ([2]; leflunomide 20 mg/kg): lethal toxicity appeared | optimal dose ([2]; leflunomide monotherapy): 15 mg/kg | control of xenograft rejection ([2]; leflunomide monotherapy, high doses causing toxicity): unable to totally control xenograft rejection | minimal effective dose ([2]; leflunomide monotherapy, read-out: dose at which graft survival exceeded that of untreated controls): 10 mg/kg | effect of start time on length of graft survival ([2]; leflunomide started seven days before or two days after transplantation): no significant effect on length of graft survival | glomerulonephritis, anti-dsDNA titer, GvH index, T-lymphocyte proliferative ability (cGvH disease or SLE): prevented development of glomerulonephritis, reduced anti-dsDNA titer, decreased the GvH index (a measure of relative spleen enlargement), and improved the diminished proliferative ability of T-lymphocytes | inhibition of development of cGvH disease or SLE (cGvH disease or SLE): effective in inhibiting the development of cGvH disease or SLE | prevention of tubulointerstitial nephritis [3]: very effective | reduction of incidence of auto-antibody formation [3]: much more effective than any of the other drugs in reducing the incidence of auto-antibody formation | prevention of tubulointerstitial nephritis ([3]; listed as Leflunomide): as effective as Cyclosporine A, and was more effective than prednisolone, naproxen or indomethacin in preventing disease development | inhibition of EGF-dependent cell growth [4]: capable of inhibiting epidermal growth factor (EGF)-dependent cell growth | skin graft survival time vs untreated (skin grafts; 2.5 to 20 mg/kg by gavage for 10 days): more than doubled graft survival time compared to untreated animals | skin graft survival, delayed treatment (skin grafts; started five to ten days after grafting): achieved prolongation of skin graft survival | survival of recipients ([5]; 7 days): 29.3 ± 13.8 days | survival of recipients ([5]; 14 days): 38.8 ± 11.5 days | pre-existing, natural xenophile antibodies ([6]; 10 mg/kg/day for 10 days): decrease in pre-existing, natural xenophile antibodies | xenophile antibody production ([6]; 3 or 10 mg/kg/day from day -4 to day +10, sensitized rats): inhibited xenophile antibody production in a dose-dependent manner | conversion after administration [7]: rapidly convened to its active open-ring form
